Measurements taken from the NIST ThermoML archive (doi:10.1021/acs.jced.9b00424).
Numbers after ± are expanded uncertainties.

Experiments:
[1] = xn = mol fraction of the nth substance listed; conditions: x1 = 1; for viscosity: 100 kPa, Concentric cylinders viscometry; for viscosity / mass density: Liquid; for mass density: 101 kPa, Vibrating tube method; for surface tension liquid-gas: Pendant drop shape

CC(C)[C@@H]1CC[C@@H](C)C[C@H]1O (racemic) [DL-menthol]
viscosity (303.15 K; 100 kPa; Metastable liquid; Concentric cylinders viscometry): 33.9 ± 1.6 mPa·s | mass density (303.15 K; 101 kPa; Metastable liquid; Vibrating tube method): 898.2 ± 11 kg/m3 | surface tension liquid-gas (303.79 K; Metastable liquid; Pendant drop shape): 21.82 ± 3.1 mN/m | viscosity (308.15 K; 100 kPa; Concentric cylinders viscometry; Liquid): 23.19 ± 1.1 mPa·s | mass density (308.15 K; 101 kPa; Vibrating tube method; Liquid): 892.2 ± 11 kg/m3 | surface tension liquid-gas (308.76 K; Pendant drop shape; Liquid): 21.35 ± 3.1 mN/m | viscosity (313.15 K; 100 kPa; Concentric cylinders viscometry; Liquid): 16.44 ± 0.78 mPa·s | mass density (313.15 K; 101 kPa; Vibrating tube method; Liquid): 886.4 ± 11 kg/m3 | surface tension liquid-gas (314.03 K; Pendant drop shape; Liquid): 20.44 ± 3.1 mN/m | viscosity (318.15 K; 100 kPa; Concentric cylinders viscometry; Liquid): 12 ± 0.57 mPa·s | mass density (318.15 K; 101 kPa; Vibrating tube method; Liquid): 881 ± 11 kg/m3 | surface tension liquid-gas (318.76 K; Pendant drop shape; Liquid): 19.91 ± 3.1 mN/m | viscosity (323.15 K; 100 kPa; Concentric cylinders viscometry; Liquid): 9 ± 0.43 mPa·s | mass density (323.15 K; 101 kPa; Vibrating tube method; Liquid): 875.8 ± 11 kg/m3 | surface tension liquid-gas (323.45 K; Pendant drop shape; Liquid): 19.18 ± 3.1 mN/m | viscosity (328.15 K; 100 kPa; Concentric cylinders viscometry; Liquid): 6.92 ± 0.33 mPa·s | mass density (328.15 K; 101 kPa; Vibrating tube method; Liquid): 870.8 ± 11 kg/m3 | surface tension liquid-gas (328.55 K; Pendant drop shape; Liquid): 18.76 ± 3 mN/m | surface tension liquid-gas (333.09 K; Pendant drop shape; Liquid): 18.15 ± 3 mN/m | viscosity (333.15 K; 100 kPa; Concentric cylinders viscometry; Liquid): 5.43 ± 0.26 mPa·s | mass density (333.15 K; 101 kPa; Vibrating tube method; Liquid): 866.2 ± 11 kg/m3 | viscosity (338.15 K; 100 kPa; Concentric cylinders viscometry; Liquid): 4.34 ± 0.21 mPa·s | mass density (338.15 K; 101 kPa; Vibrating tube method; Liquid): 861.7 ± 11 kg/m3 | viscosity (343.15 K; 100 kPa; Concentric cylinders viscometry; Liquid): 3.53 ± 0.17 mPa·s | mass density (343.15 K; 101 kPa; Vibrating tube method; Liquid): 857.6 ± 11 kg/m3 | viscosity (348.15 K; 100 kPa; Concentric cylinders viscometry; Liquid): 2.92 ± 0.14 mPa·s | mass density (348.15 K; 101 kPa; Vibrating tube method; Liquid): 853.7 ± 11 kg/m3 | viscosity (353.15 K; 100 kPa; Concentric cylinders viscometry; Liquid): 2.446 ± 0.12 mPa·s | mass density (353.15 K; 101 kPa; Vibrating tube method; Liquid): 850 ± 11 kg/m3

CC(C)[C@@H]1CC[C@@H](C)C[C@H]1O [DL-menthol] + CCCCCCCC(=O)O
viscosity ([1]; 303.15 K): 33.9 ± 1.6 mPa·s | mass density ([1]; 303.15 K): 898.2 ± 11 kg/m3 | surface tension liquid-gas ([1]; 303.79 K): 21.82 ± 3.1 mN/m | viscosity ([1]; 308.15 K): 23.19 ± 1.1 mPa·s | mass density ([1]; 308.15 K): 892.2 ± 11 kg/m3 | surface tension liquid-gas ([1]; 308.76 K): 21.35 ± 3.1 mN/m | viscosity ([1]; 313.15 K): 16.44 ± 0.78 mPa·s | mass density ([1]; 313.15 K): 886.4 ± 11 kg/m3 | surface tension liquid-gas ([1]; 314.03 K): 20.44 ± 3.1 mN/m | viscosity ([1]; 318.15 K): 12 ± 0.57 mPa·s | mass density ([1]; 318.15 K): 881 ± 11 kg/m3 | surface tension liquid-gas ([1]; 318.76 K): 19.91 ± 3.1 mN/m | viscosity ([1]; 323.15 K): 9 ± 0.43 mPa·s | mass density ([1]; 323.15 K): 875.8 ± 11 kg/m3 | surface tension liquid-gas ([1]; 323.45 K): 19.18 ± 3.1 mN/m | viscosity ([1]; 328.15 K): 6.92 ± 0.33 mPa·s | mass density ([1]; 328.15 K): 870.8 ± 11 kg/m3 | surface tension liquid-gas ([1]; 328.55 K): 18.76 ± 3 mN/m | surface tension liquid-gas ([1]; 333.09 K): 18.15 ± 3 mN/m | viscosity ([1]; 333.15 K): 5.43 ± 0.26 mPa·s | mass density ([1]; 333.15 K): 866.2 ± 11 kg/m3 | viscosity ([1]; 338.15 K): 4.34 ± 0.21 mPa·s | mass density ([1]; 338.15 K): 861.7 ± 11 kg/m3 | viscosity ([1]; 343.15 K): 3.53 ± 0.17 mPa·s | mass density ([1]; 343.15 K): 857.6 ± 11 kg/m3 | viscosity ([1]; 348.15 K): 2.92 ± 0.14 mPa·s | mass density ([1]; 348.15 K): 853.7 ± 11 kg/m3 | viscosity ([1]; 353.15 K): 2.446 ± 0.12 mPa·s | mass density ([1]; 353.15 K): 850 ± 11 kg/m3

CCCCCCCC(=O)O [octanoic acid]
surface tension liquid-gas (297.82 K; Liquid; Pendant drop shape): 30.95 ± 3 mN/m | viscosity (298.15 K; 100 kPa; Liquid; Concentric cylinders viscometry): 5.17 ± 0.21 mPa·s | mass density (298.15 K; 101 kPa; Liquid; Vibrating tube method): 917.2 ± 10 kg/m3 | surface tension liquid-gas (302.68 K; Liquid; Pendant drop shape): 30.04 ± 3 mN/m | viscosity (303.15 K; 100 kPa; Liquid; Concentric cylinders viscometry): 4.54 ± 0.18 mPa·s | mass density (303.15 K; 101 kPa; Liquid; Vibrating tube method): 910.3 ± 10 kg/m3 | viscosity (308.15 K; 100 kPa; Liquid; Concentric cylinders viscometry): 4.01 ± 0.16 mPa·s | mass density (308.15 K; 101 kPa; Liquid; Vibrating tube method): 903.8 ± 10 kg/m3 | surface tension liquid-gas (308.49 K; Liquid; Pendant drop shape): 28.56 ± 3 mN/m | surface tension liquid-gas (312.93 K; Liquid; Pendant drop shape): 27.56 ± 3 mN/m | viscosity (313.15 K; 100 kPa; Liquid; Concentric cylinders viscometry): 3.59 ± 0.15 mPa·s | mass density (313.15 K; 101 kPa; Liquid; Vibrating tube method): 897.6 ± 10 kg/m3 | surface tension liquid-gas (317.8 K; Liquid; Pendant drop shape): 26.06 ± 3 mN/m | viscosity (318.15 K; 100 kPa; Liquid; Concentric cylinders viscometry): 3.2 ± 0.13 mPa·s | mass density (318.15 K; 101 kPa; Liquid; Vibrating tube method): 891.7 ± 10 kg/m3 | surface tension liquid-gas (322.15 K; Liquid; Pendant drop shape): 24.99 ± 3 mN/m | viscosity (323.15 K; 100 kPa; Liquid; Concentric cylinders viscometry): 2.88 ± 0.12 mPa·s | mass density (323.15 K; 101 kPa; Liquid; Vibrating tube method): 886.2 ± 10 kg/m3 | surface tension liquid-gas (327.39 K; Liquid; Pendant drop shape): 24.46 ± 3 mN/m | viscosity (328.15 K; 100 kPa; Liquid; Concentric cylinders viscometry): 2.609 ± 0.11 mPa·s | mass density (328.15 K; 101 kPa; Liquid; Vibrating tube method): 880.9 ± 10 kg/m3 | surface tension liquid-gas (331.72 K; Liquid; Pendant drop shape): 23.43 ± 3 mN/m | viscosity (333.15 K; 100 kPa; Liquid; Concentric cylinders viscometry): 2.372 ± 0.096 mPa·s | mass density (333.15 K; 101 kPa; Liquid; Vibrating tube method): 876 ± 10 kg/m3 | viscosity (338.15 K; 100 kPa; Liquid; Concentric cylinders viscometry): 2.166 ± 0.088 mPa·s | mass density (338.15 K; 101 kPa; Liquid; Vibrating tube method): 871.4 ± 10 kg/m3 | viscosity (343.15 K; 100 kPa; Liquid; Concentric cylinders viscometry): 1.985 ± 0.081 mPa·s | mass density (343.15 K; 101 kPa; Liquid; Vibrating tube method): 867.1 ± 10 kg/m3 | viscosity (348.15 K; 100 kPa; Liquid; Concentric cylinders viscometry): 1.826 ± 0.074 mPa·s | mass density (348.15 K; 101 kPa; Liquid; Vibrating tube method): 863 ± 10 kg/m3 | viscosity (353.15 K; 100 kPa; Liquid; Concentric cylinders viscometry): 1.683 ± 0.068 mPa·s | mass density (353.15 K; 101 kPa; Liquid; Vibrating tube method): 859.3 ± 10 kg/m3
